Assay results: ChEMBL document CHEMBL1142642, “Hermitamides A and B, toxic malyngamide-type natural products from the marine cyanobacterium Lyngbya majuscula” (J Nat Prod, 2000); call rule not given here

Key:
[1] = Cytotoxicity against mouse Neuro2a cells after 24 hrs by MTT assay; assay type: cell-based; conditions: N2a
[2] = Toxicity in Artemia salina; assay type: organism-based; conditions: in vivo, read-out: LD50 (the source's name)
[3] = Ichthyotoxicity to gold fish; assay type: organism-based; conditions: carassius auratus, in vivo; read-out: LD50 (the source's name)
[4] = system: Biomphalaria glabrata; test: Molluscicidal activity against Biomphalaria glabrata at 10 ppm; assay type: organism-based; conditions: in vivo

| Compound | IC50 [1] | LC50 [2] | LC50 [3] | Activity [4] |
| --- | --- | --- | --- | --- |
| CCCCCCC[C@@H](C/C=C/CCC(=O)N(C)C/C(=C/Cl)c1cccc(C)c1O)OC [MALYNGAMIDE M] | > 20 µM | – | – | – |
| CCCCCCC[C@@H](C/C=C/CCC(=O)N(C)C/C(=C/Cl)[C@]12O[C@H]1CC=C(C)C2=O)OC [MALYNGAMIDE N] | 12 µM | – | – | – |
| CCCCCCC[C@@H](C/C=C/CCC(=O)NCCc1ccccc1)OC [HERMITAMIDE A] | 2.2 µM | 5 µM | 19 µM | Not Active |
| CCCCCCC[C@@H](C/C=C/CCC(=O)NCCc1c[nH]c2ccccc12)OC [HERMITAMIDE B] | 5.5 µM | 18 µM | 25 µM | Not Active |
